In one data set the target is PSMA (Homo sapiens, UniProt Q04609). The conditions noted are these: irreversible inhibitor; cited from earlier work.
A short description of the next data set: Aqueous solubility. It is filed as physicochemical.
A further data set relates to PC3-PIP PSMA (+) cells. In words: CellTiter-Glo cell viability. Format: cell-based, human. The conditions noted are these: 72 H, equivalent drug bases.
A further data set deals with c-Met (Homo sapiens, UniProt P08581). The experiment in a line: c-Met inhibition IC50. Format: biochemical. The following applies: read-out: c-Met inhibitory activity IC50.
Sequence of c-Met (P08581 25-1390): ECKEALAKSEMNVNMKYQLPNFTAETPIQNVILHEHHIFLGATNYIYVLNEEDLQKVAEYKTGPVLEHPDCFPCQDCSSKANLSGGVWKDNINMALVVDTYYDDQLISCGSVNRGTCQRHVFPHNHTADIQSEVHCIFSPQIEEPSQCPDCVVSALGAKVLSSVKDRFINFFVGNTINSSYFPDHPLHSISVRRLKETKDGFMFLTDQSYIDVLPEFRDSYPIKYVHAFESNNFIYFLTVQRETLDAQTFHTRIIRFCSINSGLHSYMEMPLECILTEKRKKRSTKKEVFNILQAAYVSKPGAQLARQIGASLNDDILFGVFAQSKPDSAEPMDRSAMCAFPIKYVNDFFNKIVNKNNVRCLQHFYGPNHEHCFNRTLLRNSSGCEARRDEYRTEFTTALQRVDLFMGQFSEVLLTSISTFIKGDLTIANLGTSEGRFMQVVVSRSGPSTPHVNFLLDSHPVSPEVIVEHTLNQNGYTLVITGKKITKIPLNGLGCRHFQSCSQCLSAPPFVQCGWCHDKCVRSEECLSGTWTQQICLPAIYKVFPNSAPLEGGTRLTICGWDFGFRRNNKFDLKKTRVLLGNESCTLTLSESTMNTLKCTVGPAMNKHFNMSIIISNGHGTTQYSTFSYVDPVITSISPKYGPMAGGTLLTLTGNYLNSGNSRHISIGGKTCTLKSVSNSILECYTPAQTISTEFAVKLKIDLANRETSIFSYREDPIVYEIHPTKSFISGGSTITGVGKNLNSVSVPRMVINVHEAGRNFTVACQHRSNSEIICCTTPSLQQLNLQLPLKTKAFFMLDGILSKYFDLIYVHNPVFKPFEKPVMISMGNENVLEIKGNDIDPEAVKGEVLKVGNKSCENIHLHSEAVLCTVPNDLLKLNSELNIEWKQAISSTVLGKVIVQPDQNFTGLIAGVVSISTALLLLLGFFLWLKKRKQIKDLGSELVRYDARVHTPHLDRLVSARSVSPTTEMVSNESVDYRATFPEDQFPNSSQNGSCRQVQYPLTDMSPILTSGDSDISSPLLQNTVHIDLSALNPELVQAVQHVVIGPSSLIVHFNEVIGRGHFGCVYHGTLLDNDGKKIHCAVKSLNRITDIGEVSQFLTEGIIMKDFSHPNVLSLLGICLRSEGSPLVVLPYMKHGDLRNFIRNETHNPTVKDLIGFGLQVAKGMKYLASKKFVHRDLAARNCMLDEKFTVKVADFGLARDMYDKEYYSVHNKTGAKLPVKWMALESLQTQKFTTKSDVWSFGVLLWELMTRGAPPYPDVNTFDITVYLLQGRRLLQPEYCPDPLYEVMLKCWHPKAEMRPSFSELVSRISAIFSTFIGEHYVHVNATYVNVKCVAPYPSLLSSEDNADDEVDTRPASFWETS

Sequence of PSMA (Q04609 whole entry): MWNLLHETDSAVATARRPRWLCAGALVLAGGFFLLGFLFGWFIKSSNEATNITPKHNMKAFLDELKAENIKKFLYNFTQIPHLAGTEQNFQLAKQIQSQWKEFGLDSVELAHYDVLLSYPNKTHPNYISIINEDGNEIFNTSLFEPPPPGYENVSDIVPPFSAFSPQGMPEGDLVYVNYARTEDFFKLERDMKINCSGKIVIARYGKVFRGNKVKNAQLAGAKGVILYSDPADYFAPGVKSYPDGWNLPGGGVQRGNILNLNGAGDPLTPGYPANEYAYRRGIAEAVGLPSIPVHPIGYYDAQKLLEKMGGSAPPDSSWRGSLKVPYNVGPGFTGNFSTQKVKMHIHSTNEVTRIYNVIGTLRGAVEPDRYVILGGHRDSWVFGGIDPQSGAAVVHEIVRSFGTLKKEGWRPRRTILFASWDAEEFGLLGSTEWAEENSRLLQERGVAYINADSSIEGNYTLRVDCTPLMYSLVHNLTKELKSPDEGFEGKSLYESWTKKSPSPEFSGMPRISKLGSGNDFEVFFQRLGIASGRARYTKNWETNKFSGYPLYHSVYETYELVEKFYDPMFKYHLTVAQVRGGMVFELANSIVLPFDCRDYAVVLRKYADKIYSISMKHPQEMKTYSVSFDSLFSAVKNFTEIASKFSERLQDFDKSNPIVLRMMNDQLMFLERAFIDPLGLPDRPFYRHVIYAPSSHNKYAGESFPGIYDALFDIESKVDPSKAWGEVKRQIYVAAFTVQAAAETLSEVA

Take `O=C(O)CC[C@H](NP(=O)(O)OCCC[C@H](NC(=O)CC[C@H](NC(=O)CCCCCNC(=O)c1ccc(F)cc1)C(=O)O)C(=O)O)C(=O)O` [CTT 1057]: at PSMA, the PSMA affinity result is reported as “nanomolar affinity”.

Consider `COc1cc2nccc(Oc3ccc(NC(=O)C4(C(=O)Nc5ccc(F)cc5)CC4)cc3)c2cc1OC` [Cabo, cabozantinib, reference compound], for which, in the data set “Aqueous solubility”, the “aqueous solubility” value was “poor aqueous solubility”.

In the case of `COc1cc2c(Oc3ccc(NC(=O)C4(C(=O)Nc5ccc(F)cc5)CC4)cc3)ccnc2cc1O` [Cabo-OH], in the data set “Aqueous solubility”, the “aqueous solubility” value was “poor aqueous solubility”. In addition, the “anti-proliferative IC50” value with PC3-PIP PSMA (+) cells was found to be 77.30 ± 4.35 µg/mL. Also, at c-Met, the IC50 was found to be 26.3 nM.

The record behind these values is PMC12716163 (Nanoscale, 2024).
